Experimental data taken from US20200093852A1, “Methods of Treating Ocular Disorders” (priority 2016, published 2020).
pIC50: −log10 of the molar value. Structures can show the parent of a compound that is named as a salt.

The compounds below were run against T1, Recombinant human active heparanase (Homo sapiens, UniProt Q9Y251) (assay: Heparanase enzyme inhibition assay (fondaparinux substrate, WST-1 detection)). Details: IC50 heparanase inhibition by compounds of Formula 1, Table 3.
T1 construct: Recombinant human active heparanase derived from Chinese hamster ovary cells; purchased R&D Systems; host or cells: Chinese hamster ovary cells
T1 sequence (Q9Y251 158-543 limits assumed): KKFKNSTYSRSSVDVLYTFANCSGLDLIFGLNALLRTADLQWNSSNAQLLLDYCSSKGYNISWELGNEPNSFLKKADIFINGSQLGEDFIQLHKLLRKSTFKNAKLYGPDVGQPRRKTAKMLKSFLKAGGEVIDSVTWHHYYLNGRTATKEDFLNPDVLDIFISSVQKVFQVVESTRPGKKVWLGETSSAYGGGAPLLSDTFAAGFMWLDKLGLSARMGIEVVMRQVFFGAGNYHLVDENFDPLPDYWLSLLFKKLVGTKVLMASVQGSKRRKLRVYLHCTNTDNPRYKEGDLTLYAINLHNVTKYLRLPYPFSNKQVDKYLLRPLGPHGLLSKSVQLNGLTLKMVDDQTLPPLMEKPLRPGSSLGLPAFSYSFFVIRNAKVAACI
T1 sequence (Q9Y251 36-109 limits assumed): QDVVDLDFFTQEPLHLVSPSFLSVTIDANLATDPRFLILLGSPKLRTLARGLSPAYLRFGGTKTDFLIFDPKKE
Assay type: biochemical
Method: Recombinant human active heparanase derived from Chinese hamster ovary cells was from R&D Systems. […] The plates were washed three times with PBST, shaken dry, and stored for up to two weeks at 4° C. before use. […] Following initiation of the reaction by addition of fondaparinux, the plate was sealed with adhesive film and incubated at 37° C. for 20-24 h.
Test compounds were dissolved and added to the assay at varying concentrations to calculate the level of inhibition.
For `COc1cc2nc(-c3cccc4cccnc34)nc(NCCc3ccccc3)c2cc1OC` [BT-2164], the pIC50 was 5.21.

Same assay, conditions: IC50 heparanase inhibition by compounds of Formula 2-4, Table 4
With `CCOC(=O)CSc1nc2cc(OC)c(OC)cc2c(=N)n1CCNC(=O)c1cc2ccccc2[nH]1` [BT-2136] the pIC50 was 4.57.

Same assay, conditions: Table 3; read-out: IC50 heparanase inhibition by compounds of Formula 1
Work on `COc1cc2nc(-c3ccc4[nH]ccc4c3)nc(NCCc3c[nH]c4ccccc34)c2cc1OC` [BT-2005] yielded a pIC50 of 4.39.
`COc1cc2nc(-c3cncc4ccccc34)nc(NCCc3c[nH]c4ccccc34)c2cc1OC` [BT-2007] showed a pIC50 of 4.03.
In the case of `COc1cc2nc(N3CCN(C(=O)C4COc5ccccc5O4)CC3)nc(N)c2cc1OC` (stereo not shown) [BT-2013, doxazosin mesylate, reference compound], the pIC50 was 4.24.
Compound `COc1cc2nc(-c3ccc4ccccc4c3)nc(NCCc3c[nH]c4ccccc34)c2cc1OC` [BT-2057] has a pIC50 of 4.25.
In the case of `COc1cc2nc(-c3cccc4cccnc34)nc(NCCc3c[nH]c4ccccc34)c2cc1OC` [BT-2062], the pIC50 was 6.00.
In the case of `COc1cc2nc(-c3ccccc3CN3CCOCC3)nc(NCCc3c[nH]c4ccccc34)c2cc1OC` [BT-2090], the pIC50 was 4.27.
For `COc1cc2nc(-c3cccc4cccnc34)nc(NC3CN(C(=O)c4cc5ccccc5[nH]4)C3)c2cc1OC` [BT-2120], the pIC50 was 6.15.
`COC(=O)c1ccc2c(S(=O)(=O)NC3CN(c4nc(N)c5cc(OC)c(OC)cc5n4)C3)c[nH]c2c1` [BT-2148] showed a pIC50 of 4.69.
In the case of `COc1cc2nc(NCCNC(=O)c3cc(-c4ccccc4)on3)nc(N)c2cc1OC` [BT-2161], the pIC50 was 4.72.
With `COc1cc2nc(N3CC(NC(=O)c4nnc(-c5ccccc5)o4)C3)nc(N)c2cc1OC` [BT-2167] the pIC50 was 4.48.
With `COc1cc2nc(NCCNC(=O)c3nnc(-c4cc5ccccc5[nH]4)o3)nc(N)c2cc1OC` [BT-2169] the pIC50 was 5.48.
Compound `COc1cc2nc(NCCNC(=O)c3nnc(-c4ccccc4)o3)nc(NCCc3ccccc3)c2cc1OC` [BT-2170] has a pIC50 of 4.26.
For `COc1cc2nc(-c3ccc4c(c3)OCCO4)nc(NCCc3c[nH]c4ccccc34)c2cc1OC` [BT-2171], the pIC50 was 4.85.
`COc1cc2nc(NCCNC(=O)c3nnc(-c4cc5ccccc5[nH]4)o3)nc(N)c2cc1OC` [BT-2173] was tested, and the pIC50 was 5.37.
`COc1cc2nc(NCCNC(=O)c3nnc(-c4c[nH]c5ncccc45)o3)nc(N)c2cc1OC` [BT-2177] gave a pIC50 of 4.68.
`COc1cc2nc(-c3cccc4cccnc34)nc(NCCc3ccccn3)c2cc1OC` [BT-2178] showed a pIC50 of 4.96.
In the case of `COc1cc2nc(NCCc3ccccn3)nc(NCCc3c[nH]c4ccccc34)c2cc1OC` [BT-2179], the pIC50 was 4.74.
With `COc1cc2nc(-c3cccc4cccnc34)nc(NCCNC(=N)N)c2cc1OC` [BT-2181] the pIC50 was 4.96.
`COc1cc2nc(NCCNC(=N)N)nc(NCCc3c[nH]c4ccccc34)c2cc1OC` [BT-2182] showed a pIC50 of 4.74.
`COc1cc2nc(-c3cccc4cccnc34)nc(NCCNS(=O)(=O)c3ccccc3)c2cc1OC` [BT-2184] gave a pIC50 of 5.47.
Compound `COc1cc2nc(NCCNC(=O)c3nnc(-c4cccc(F)c4)o3)nc(N)c2cc1OC` [BT-2185] has a pIC50 of 4.66.
With `COc1cc2nc(-c3cccc4cccnc34)nc(NCCNC(=O)c3nnc(-c4ccccc4)o3)c2cc1OC` [BT-2187] the pIC50 was 5.39.
`COc1cc2nc(NCCNC(=O)c3nnc(-c4ccccc4)s3)nc(N)c2cc1OC` [BT-2229] was tested, and the pIC50 was 4.87.

Same assay, conditions: Table 4; read-out: IC50 heparanase inhibition by compounds of Formula 2-4
Compound `COc1cc2[nH]c(=S)n(CCNC(=O)c3cc4ccccc4[nH]3)c(=N)c2cc1OC` [BT-2058] has a pIC50 of 5.05.
Work on `COc1ccc(-c2ccc3[nH]c(C(=O)NCCn4c(=S)[nH]c5cc(OC)c(OC)cc5c4=N)cc3c2)cn1` [BT-2066] yielded a pIC50 of 5.38.
Work on `COc1cc2[nH]c(=S)n(CCNC(=O)c3cc4cc(-c5ccc(C(=O)N6CCN(C)CC6)cc5)ccc4[nH]3)c(=N)c2cc1OC` [BT-2068] yielded a pIC50 of 5.55.
`COc1cc2[nH]c(=S)n(CCNC(=O)c3cc4cc(-c5cccnc5)ccc4[nH]3)c(=N)c2cc1OC` [BT-2070] showed a pIC50 of 6.00.
Work on `COc1cc2[nH]c(=S)n(CCNC(=O)c3c[nH]c4ccccc34)c(=N)c2cc1OC` [BT-2071] yielded a pIC50 of 5.15.
Work on `COc1cc2[nH]c(=S)n(CCNC(=O)c3cc4ccc(-c5cccnc5)cc4[nH]3)c(=N)c2cc1OC` [BT-2072] yielded a pIC50 of 5.51.
`COc1cc2[nH]c(=S)n(CCNC(=O)c3n[nH]c4ccccc34)c(=N)c2cc1OC` [BT-2100] showed a pIC50 of 4.43.
`COc1cc2[nH]c(=S)n(CCNC(=O)c3c[nH]c4c(O)cccc34)c(=N)c2cc1OC` [BT-2103] showed a pIC50 of 4.97.
`COc1cc2[nH]c(=S)n(CCNC(=O)c3ccc(-c4ccccc4)[nH]3)c(=N)c2cc1OC` [BT-2113] gave a pIC50 of 4.97.
In the case of `COc1cc2[nH]c(=S)n(CCNC(=O)c3cc(-c4ccccc4)on3)c(=N)c2cc1OC` [BT-2133], the pIC50 was 4.50.
In the case of `COc1cc2nc(SC)n(CCNC(=O)c3cc4ccccc4[nH]3)c(=N)c2cc1OC` [BT-2134], the pIC50 was 4.60.
For `COc1cc2nc(SCc3cccc(C(F)(F)F)c3)n(CCNC(=O)c3cc4ccc(-c5cccnc5)cc4[nH]3)c(=N)c2cc1OC` [BT-2137], the pIC50 was 4.55.
With `COc1cc2nc(SCc3ccc(C(F)(F)F)cc3)n(CCNC(=O)c3cc4ccc(-c5cccnc5)cc4[nH]3)c(=N)c2cc1OC` [BT-2138] the pIC50 was 5.23.
`COc1cc2nc(SCc3ccc(C(F)(F)F)cc3)n(CCNC(=O)c3cc4cc(-c5cccnc5)ccc4[nH]3)c(=N)c2cc1OC` [BT-2152] showed a pIC50 of 5.54.
`COc1cc2nc(SCc3ccc(OC(F)(F)F)cc3)n(CCNC(=O)c3cc4cc(-c5cccnc5)ccc4[nH]3)c(=N)c2cc1OC` [BT-2153] gave a pIC50 of 5.24.
